According to publication PMC6310865 (Proceedings of the National Academy of Sciences of the …, 2018):
Like-named read-outs stand apart in the source and are kept apart here. Ends that are not written are not given here.

Assays:
[1] = target: DQ0602 (HLA DQB1*06:02/DQA1*01:02 heterodimer) (Homo sapiens, UniProt P01909+P01920, A157G/A45G/C70R/E118A/E183D/E77G/F83G/G63E/H151Q/H199R/H252R/H253Q/I129T/I235V/I88M/INS77G/K197Q/L117V/L119F/L178F/L71W/L74F/L85Q/L91A/L98M/N214S/P87R/Q116E/Q76K/R102G/R240Q/R75S/R78G/S102Y/S185I/S41F/S97I/T121G/T122I/T172A/T86R/V229M/V68A/V73E/Y34C/Y41F/Y58L); type: binding; details: in words; Dataset S1
CD4+ T cells = type: cell-based, human
[2] = 13 post-Pandemrix cases versus 10 post-Pandemrix controls

Substance	DQ0602 binding affinity of amidated versus nonamidated HCRT peptide [1]	Tetramer-positive CD4+ T cells in T1N cases versus DQ0602 controls (CD4+ T cells; 7 recent onset cases versus 21 controls)	Tetramer-positive CD4+ T cells in T1N cases versus DQ0602 controls (CD4+ T cells; [2])	Tetramer-positive CD4+ T cells in T1N cases versus DQ0602 controls (CD4+ T cells; all cases versus controls, […])	Tetramer reactivity (frequency of specific CD4+ T cells) in primary screening (CD4+ T cells)
HCRT54–66-NH2: C-terminal amidated HCRT54–66, as in secreted, mature hypocretin-1 (HGAGNHAAGILTL-NH2)	higher affinity	higher reactivity	marginally higher values	significantly higher percentage	
HCRT86–97-NH2: C-terminal amidated HCRT86–97, as in secreted, mature hypocretin-2 (ASGNHAAGILTM-NH2; UniProt O43612 86-97, looked up, fragment)	higher affinity		significantly higher reactivity	marginally higher values	
NP17–31: nucleoprotein epitope, PR8 specific (GERQNATEIRASVGK)					highest frequencies
NP261–275: nucleoprotein epitope shared between A/California/07/2009 and PR8 (RSALILRGSVAHKSC; UniProt P03466 261-275, looked up, fragment)					highest frequencies
